# Source: patent US12121514B2, “Nonselective metabotropic glutamate receptor activators for treatment of attention deficit disorder and 22Q syndrome” (THE CHILDREN'S HOSPITAL OF PHILADELPHIA, priority 2015, dated 2024)
# Assays:
# [1] = test system: adolescent subjects with ADHD and at least one genetic alteration in an mGluR network gene; assay: Actigraphy, Phase Ib trial of NFC-1; type: in vivo, human
# Excerpt: Actigraphy is non-invasive monitoring of human rest/activity cycles, using an actigraph worn by the patient to document body movements. Actigraphs can be worn during school, for example, to measure activity levels. Actigraphy analysis can measure changes in sleep and hyperactivity that may be seen with treatment for ADHD.
# All efficacy assessments, except actigraphy, were made at study enrollment (“enrollment baseline”) and again, including actigraphy, once-per-week for the placebo week (“week 1” or “placebo baseline”) and at each of the 4 weeks of NFC-1 treatment. These efficacy measures include items 1-18 of the Vanderbilt scale assessing symptoms related to inattentiveness and hyperactivity-impulsiveness as well as additional questions 19-47 of the Vanderbilt scale assessing other behavioral symptoms (conducted by parent), actigraphy for quantitative measurement of activity, Quotient® ADHD test for objective measurement of micro-motion and shifts in attention state, PERMP-Math test, and CGI-I and CGI-S for assessment of global functioning. […]
# [2] = test system: subjects with ADHD and ODD; assay: Vanderbilt ODD score (items 19-26), Phase Ib trial of NFC-1; type: in vivo, human
# Excerpt: The Vanderbilt Rating Scale is a measure that can be completed by parents or teachers (separate forms, see Vanderbilt Rating Scale Parents and Vanderbilt Rating Scale Teachers). The Vanderbilt scale rates the child's behavior on items such as attention, finishing tasks, hyperactivity, difficulty waiting, and measures of conduct or oppositional defiant disorders—as well as measures of overall school performance and interactions with others. The first 18 items on the Vanderbilt scale correspond to those of the ADHD Rating Scale IV above while the Vanderbilt scale also includes items 19-47 related to other mental disorders including ODD (items 19-26), conduct disorder (items 27-40), anxiety (items 41, 42, and 47), and depression (items 43-46). Each of the behavioral assessment items on the Vanderbilt Scale are rated 0, 1, 2, or 3, with 0=never occurring; 1=occasionally, 2=often, and 3=very often. Thus, the ADHD Rating Scale IV, ADHD Rating Scale V, and items 1-18 of the Vanderbilt Rating Scale are equivalent scales, while additional items on the Vanderbilt Scale assess co-morbid phenotypes and disorders.
# Subjects were identified as ODD from the K-SADS-P V6 performed at screening and Vanderbilt scores for ODD at screening and at week 1(scores of 2 or 3 on at least 4 of the 8 Vanderbilt items that assess ODD, i.e., items 19 to 26). By the end of the dose escalation phase of the trial at week 5, four of the twelve subjects (nos. 108, 117, 125, and 128) no longer met the screening criteria for ODD.
# [3] = out of the 13 ODD subjects, week 1 to week 5
compound,measurement,setting,value
"O=C1CC[C@H](C(=O)N2CCCCC2)N1 [NFC-1, fasoracetam monohydrate]",bursts of medium/high intensity movements (actigraphy),"[1]; 400 mg bid in comparison with placebo, P<0.001",significant reduction
same,reduction in moderate to vigorous physical activity (MVPA),"[1]; week 1 (placebo) to week 5, genetic Tiers 1, 2 and 3",most prominent in 400 mg bid dose group
same,"Vanderbilt ODD score (items 19-26, maximum 24)","[2]; Subject 108, end of week 5, placebo baseline 19",7
same,"Vanderbilt ODD score (items 19-26, maximum 24)","[2]; Subject 117, week 5, placebo baseline 19",8
same,"Vanderbilt ODD score (items 19-26, maximum 24)","[2]; Subject 128, week 5, placebo baseline 24",8
same,improvement in Vanderbilt ODD score,"[2]; Subject 130, week 1 to week 5",3 points
same,Vanderbilt ODD score,"[2]; Subject 130, week 5, out of 24, 24/24 at week 1",21
same,subjects with improved Vanderbilt ODD scores,"[2]; of 13 ODD subjects, week 1 to week 5",13 subjects
same,subjects showing improvements of 2 or more points in Vanderbilt ODD items,"[2]; of the remaining eight ODD subjects, week 1 to week 5",four
same,subjects no longer meeting the screening criteria for ODD,"[2]; of the twelve ADHD/ODD subjects, week 5",four
same,subjects with improvement of at least 3 points in Vanderbilt ODD score,[2]; [3],Eleven
same,subjects with improvement of at least 8 points in Vanderbilt ODD score,[2]; [3],6 subjects
same,Vanderbilt ODD scores in subjects on anti-psychotic medications,"[2]; subjects 111 and 126 on aripiprazole, subject 122 on risperidone, between weeks 1 and 5",improved
